Experimental data as given in the supplement of paper PMC10307832.

Tests used:
Assay in all cases: relative viability (nuclei count vs DMSO), 5 days (fraction); higher = more cells survive
Afatinib + Luminespib = compound: CN(C)C/C=C/C(=O)Nc1cc2c(Nc3ccc(F)c(Cl)c3)ncnc2cc1O[C@H]1CCOC1 [Afatinib] + CCNC(=O)c1noc(-c2cc(C(C)C)c(O)cc2O)c1-c1ccc(CN2CCOCC2)cc1 [Luminespib] (partner 0.01 µM)
How it was run: (§1)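 After 5 days of treatment, lung cancer cells in 1536-well plates were fixed and stained in a single step (final 0.05% Triton X-100, 1% formaldehyde, 1 ug/ml Hoechst) and their nuclei counted on 4× images. Treatment had been applied by pin tool the day after seeding as one drug alone or as a fixed anchor-drug dose with five library-drug doses (not always all listed) in √10 steps. Relative viability is the nuclei count of treated wells divided by that of vehicle wells, and values are medians of duplicate plates.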

Afatinib + Lapatinib = compound: CN(C)C/C=C/C(=O)Nc1cc2c(Nc3ccc(F)c(Cl)c3)ncnc2cc1O[C@H]1CCOC1 [Afatinib] + CS(=O)(=O)CCNCc1ccc(-c2ccc3ncnc(Nc4ccc(OCc5cccc(F)c5)c(Cl)c4)c3c2)o1 [Lapatinib] (partner 2 µM)
How it was run: as §1

Afatinib + Decitabine = compound: CN(C)C/C=C/C(=O)Nc1cc2c(Nc3ccc(F)c(Cl)c3)ncnc2cc1O[C@H]1CCOC1 [Afatinib] + Nc1ncn([C@H]2C[C@H](O)[C@@H](CO)O2)c(=O)n1 [Decitabine] (partner 2 µM)
How it was run: as §1

Afatinib + Olaparib = compound: CN(C)C/C=C/C(=O)Nc1cc2c(Nc3ccc(F)c(Cl)c3)ncnc2cc1O[C@H]1CCOC1 [Afatinib] + O=C(c1cc(Cc2n[nH]c(=O)c3ccccc23)ccc1F)N1CCN(C(=O)C2CC2)CC1 [Olaparib] (partner 8 µM)
How it was run: as §1

Cell Line	relative viability (Afatinib + Luminespib; first compound 0.005 µM)	relative viability (Afatinib + Luminespib; first compound 0.01581 µM)	relative viability (Afatinib + Luminespib; first compound 0.05 µM)	relative viability (Afatinib + Luminespib; first compound 0.1581 µM)	relative viability (Afatinib + Luminespib; first compound 0.5 µM)	relative viability (Afatinib + Lapatinib; first compound 0.005 µM)	relative viability (Afatinib + Lapatinib; first compound 0.01581 µM)	relative viability (Afatinib + Lapatinib; first compound 0.05 µM)	relative viability (Afatinib + Lapatinib; first compound 0.1581 µM)	relative viability (Afatinib + Lapatinib; first compound 0.5 µM)	relative viability (Afatinib + Decitabine; first compound 0.005 µM)	relative viability (Afatinib + Decitabine; first compound 0.01581 µM)	relative viability (Afatinib + Decitabine; first compound 0.05 µM)	relative viability (Afatinib + Decitabine; first compound 0.1581 µM)	relative viability (Afatinib + Decitabine; first compound 0.5 µM)	relative viability (Afatinib + Olaparib; first compound 0.005 µM)	relative viability (Afatinib + Olaparib; first compound 0.01581 µM)	relative viability (Afatinib + Olaparib; first compound 0.05 µM)	relative viability (Afatinib + Olaparib; first compound 0.1581 µM)	relative viability (Afatinib + Olaparib; first compound 0.5 µM)
NCI-H2087	0.178	0.163	0.21	0.167	0.161	0.973	1.07	1.09	0.946	0.929	0.336	0.227	0.262	0.209	0.25	0.511	0.669	0.609	0.525	0.593
LU99A	0.198	0.294	0.25	0.343	0.305	1.08	1.07	1.02	0.979	0.871	0.903	0.93	0.929	0.873	0.964	0.253	0.266	0.249	0.248	0.264
NCI-H1355	0.703	0.685	0.642	0.647	0.582	1.03	1.08	1	0.945	1.03	0.377	0.332	0.341	0.356	0.332	0.723	0.768	0.713	0.716	0.67
NCI-H520	0.21	0.264	0.223	0.215	0.234	0.857	0.78	0.918	0.903	0.687	0.539	0.454	0.45	0.483	0.413	0.313	0.32	0.329	0.365	0.368
NCI-H661	0.994	0.895	0.867	0.674	0.629	0.682	0.469	0.573	0.454	0.443	0.502	0.428	0.44	0.391	0.401	0.811	0.732	0.638	0.589	0.637
NCI-H650	0.841	0.816	0.791	0.814	0.788	1.01	0.844	1.19	1.21	0.684	0.321	0.323	0.334	0.334	0.308	0.339	0.429	0.441	0.407	0.399
NCI-H647	0.169	0.26	0.12	0.183	0.158	1.09	0.948	1.16	1.24	1.2	0.459	0.499	0.425	0.315	0.419	0.559	0.563	0.526	0.414	0.552
201T	1.01	1.02	1.03	0.975	1.03	1.07	1.04	0.904	1.01	1.08	0.857	0.867	0.844	0.78	0.822	0.846	0.826	0.752	0.78	0.854
